Source: patent publication US9127040B2, “Regulation of sodium channels by PLUNC proteins” (The University of North Carolina at Chapel Hill, priority 2011, dated 2015)
Ends that are not written are not given here.

T1: βENaC (Homo sapiens, UniProt P51168)
T1 construct: expressed in transfected cells; host or cells: HEK293T cells (lysate)
T1 sequence (P51168 1-640): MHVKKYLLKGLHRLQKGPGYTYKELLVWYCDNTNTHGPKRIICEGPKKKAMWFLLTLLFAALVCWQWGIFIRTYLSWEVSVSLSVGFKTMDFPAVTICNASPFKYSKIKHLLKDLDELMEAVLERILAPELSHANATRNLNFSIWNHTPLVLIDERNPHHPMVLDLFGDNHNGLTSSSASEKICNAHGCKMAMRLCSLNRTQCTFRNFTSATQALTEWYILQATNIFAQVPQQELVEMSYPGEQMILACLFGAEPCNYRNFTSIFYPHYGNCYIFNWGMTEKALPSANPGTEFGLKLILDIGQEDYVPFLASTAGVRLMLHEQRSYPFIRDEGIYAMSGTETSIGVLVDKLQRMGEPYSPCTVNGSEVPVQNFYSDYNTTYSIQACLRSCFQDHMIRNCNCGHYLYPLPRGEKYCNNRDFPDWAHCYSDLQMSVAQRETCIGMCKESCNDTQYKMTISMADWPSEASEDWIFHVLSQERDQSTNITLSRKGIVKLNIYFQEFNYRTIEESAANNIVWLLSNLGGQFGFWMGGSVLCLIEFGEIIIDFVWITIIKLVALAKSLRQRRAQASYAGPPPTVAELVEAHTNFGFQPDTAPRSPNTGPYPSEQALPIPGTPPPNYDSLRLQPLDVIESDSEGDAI

T2: neutrophil elastase (Homo sapiens, UniProt P08246)
T2 sequence (P08246 30-267): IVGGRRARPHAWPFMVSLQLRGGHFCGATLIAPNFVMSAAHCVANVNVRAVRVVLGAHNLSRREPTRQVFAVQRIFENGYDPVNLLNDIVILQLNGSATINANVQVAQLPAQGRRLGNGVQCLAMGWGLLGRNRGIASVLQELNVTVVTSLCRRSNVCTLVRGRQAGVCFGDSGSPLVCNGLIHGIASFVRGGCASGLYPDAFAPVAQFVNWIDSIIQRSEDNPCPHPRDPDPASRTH

B1: SPLUNC1: human SPLUNC1 (SEQ ID NO:1), 256 amino acid secreted PLUNC family protein; rSPLUNC1 is the purified V5/6His-tagged recombinant form (protein, listed as Homo sapiens)
chain: MFQTGGLIVFYGLLAQTMAQFGGLPVPLDQTLPLNVNPALPLSPTGLAGSLTNALSNGLLSGGLLGILENLPLLDILKPGGGTSGGLLGGLLGKVTSVIPGLNNIIDIKVTDPQLLELGLVQSPDGHRLYVTIPLGIKLQVNTPLVGASLLRLAVKLDITAEILAVRDKQERIHLVLGDCTHSPGSLQISLLDGLGPLPIQGLLDSLTGILNKVLPELVQGNVCPLVNEVLRGLDITLVHDIVNMLIHGLQFVIKV
modifications: V5/6His tag in recombinant form
notes: rSPLUNC1 is the purified V5/6His-tagged recombinant form

Assays:
[1] = target: T1, βENaC; assay: Biotinylated peptide pull-down of ENaC subunits from HEK293T cells; type: binding
Experimental: HEK293T cells were transfected with double-tagged human ENaC subunits with HA and V5 epitopes at the N- and C-termini, respectively, in combination with wild-type untagged subunit cDNA. When all three ENaC subunits were expressed, 0.5 μg of each subunit were transfected per well. When expressed individually, 0.75 μg of the subunit were transfected per well. The transfected cells were lysed 24 h later using NP-40 buffer with 1× complete EDTA-free protease inhibitor (Roche, Basel, Switzerland). The lysate was centrifuged at 16,300×g for 15 minutes at 4° C. and the supernatant collected. Protein concentration was determined using the BCA assay and 500 μg of protein plus 0.25 mg peptide and 100 μL of neutravidin were added to a spin column and rotated end-over-end at 4° C. for 24 h (all ThermoFisher Scientific, Rockford, Ill., USA). Flow-through was collected by centrifugation at 1000×g for 30 s. The beads were then washed 5× with NP-40 buffer. Bound protein was eluted by boiling at 95° C. for 10 minutes in 75 μL of 2×LDS NuPAGE sample buffer with 1× sample reducing agent followed by centrifugation at 16,300×g for 2 minutes. Samples were resolved on 4-12% Bis-Tris gels in MES and transferred to a nitrocellulose membrane using iBlot, setting P3 for 8 min (Invitrogen, Carlsbad, Calif., USA). The membrane was probed using 1:1000 anti-V5 antibody (Invitrogen, Carlsbad, Calif., USA) overnight at 4° C. in 3% fish gelatin in TBS-T. The blot was then incubated for 1 h at room temperature with an ECL sheep anti-mouse IgG secondary antibody and detected by ECL reagent (ThermoFisher Scientific, Waltham, Mass., USA) or by incubation with a goat anti-mouse IRDye secondary antibody and analyzed by an Odyssey infrared imaging system (LI-COR Biosciences, Lincoln, Nebr., USA).
Peptide pull-down assays were performed as described above. Samples were eluted by the addition of 100 μL of 0.1 M sodium citrate, pH 5.5, 0.1% SDS to the beads and incubating at 100° C. for 2 minutes, followed by centrifugation at 16,300×g for 2 minutes. […]

[2] = target: T2, neutrophil elastase; assay: Cleavage of SPLUNC1 by neutrophil elastase at pH 6 vs 7.4; conditions: 10 μM SPLUNC1, 100 nM neutrophil elastase
Experimental: A, Neutrophil elastase activity is moderately greater at pH 6 than at pH 7.4. B, Coomassie-stained gel showing 10 μM SPLUNC1 exposed to 100 nM Neutrophil elastase at pH 6 and 7.4. The reaction was stopped at timed intervals.
Based on SPLUNC1 but not S18's pH-sensitivity (FIGS. 25B and 25C), we hypothesized that SPLUNC1 undergoes a conformational change, and binds to itself at pH 6. To test this, we exposed SPLUNC1 to neutrophil elastase at pH 6 vs. 7.4 (FIG. 26). […] This is consistent with our hypothesis that less SPLUNC1 is exposed at low pH.

Row | Molecule | glycosylation dependence of β-ENaC interaction ([1]; EndoH treated elution, tunicamycin treated cells) | binding to βENaC (pull-down) ([1]; subunits individually expressed, biotinylated peptide) | cleavage by neutrophil elastase at pH 6 [2]
1 | GGLPVPLDQTLPLNVNPA [S18] | glycosylation dependent | binds exclusively to βENaC | –
2 | B1 | – | – | resistant to cleavage
